Laboratory results reported in ChEMBL document CHEMBL1201862, “PubChem BioAssay data set” (2004).
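These data come from cells grown in 96-well plates and exposed to compound for 48 hours at five concentrations. Here, GI50 denotes the concentration required for 50% inhibition of growth.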 Active and inactive are the calls of the source. Rule as the data show it: active = GI50 up to about 1.1 µM and inactive = higher.

What was measured:
Experiment in all cases: NCI-60 cell line screen, 48 h
[1] = test system: NCI/ADR-RES
[2] = test system: KM12
[3] = test system: SK-MEL-2
[4] = test system: MCF7
[5] = test system: RXF 393
[6] = test system: HOP-62
[7] = test system: SNB-19
[8] = test system: EKVX
[9] = test system: PC-3
[10] = test system: A498
[11] = test system: M14
[12] = test system: SW-620
[13] = test system: MDA-MB-231
[14] = test system: Hs-578T
[15] = test system: UO-31
[16] = test system: SN12C
[17] = test system: MDA-MB-435
[18] = test system: OVCAR-5
[19] = test system: Malme-3M
[20] = test system: OVCAR-8

Measured: GI50

O=C(O)COc1c(Cl)cc(Cl)c2cccnc12
inactive: [1] > 100 µM | [2] > 100 µM | [3] > 100 µM | [4] > 100 µM | [5] > 100 µM | [6] > 100 µM | [7] > 100 µM | [8] > 100 µM | [9] > 100 µM | [10] > 100 µM | [11] > 100 µM | [12] > 100 µM | [13] > 100 µM | [14] > 100 µM | [15] > 100 µM | [16] > 100 µM | [17] > 100 µM | [18] > 100 µM | [19] > 100 µM | [20] > 100 µM

N#CC12CC(C=O)=C(N)C1(C#N)CC(C=O)=C2N (stereo not given)
inactive: [1] > 100 µM | [2] 88.9 µM | [3] 24.1 µM | [4] 58.9 µM | [5] 41.9 µM | [6] 65.9 µM | [7] 52.8 µM | [8] > 100 µM | [9] 72.3 µM | [10] > 100 µM | [11] 35.9 µM | [12] 49.7 µM | [13] > 100 µM | [14] 34 µM | [15] 70.1 µM | [16] 74.6 µM | [17] 36.1 µM | [18] > 100 µM | [19] 50.8 µM | [20] 63.7 µM

CC(C)(Cl)C(Cl)CC/C(CBr)=C(\Cl)CBr (stereo not given)
inactive: [1] 2.77 µM | [2] 2.08 µM | [3] 1.67 µM | [4] 2.49 µM | [5] 1.53 µM | [6] 2.24 µM | [7] 11.1 µM | [8] 16.5 µM | [9] 3.15 µM | [10] 19.2 µM | [11] 1.6 µM | [12] 1.6 µM | [13] 2 µM | [14] 1.85 µM | [15] 3.08 µM | [16] 2.45 µM | [17] 2.37 µM | [18] 2.29 µM | [19] 2.11 µM | [20] 1.95 µM

COC(C)(C)[C@@H](O)[C@H]1C[C@H](C)[C@@]2(CC[C@]3(C)[C@@H]2CC[C@@H]2[C@@]4(C)CC[C@@H](OC(C)=O)C(C)(C)[C@@H]4C[C@@H](OC4OC(COC(C)=O)C(O)C(O)C4O)[C@]23C)O1 (stereo not given in full)
inactive: [1] 7.43 µM | [2] 1.79 µM | [3] 4.75 µM | [4] 2.86 µM | [5] 4.1 µM | [6] 12.3 µM | [7] 8.73 µM | [8] 5.74 µM | [9] 2.63 µM | [10] 6.41 µM | [11] 4.8 µM | [12] 6.81 µM | [13] 8.83 µM | [14] 6.76 µM | [15] 4.67 µM | [16] 6.43 µM | [17] 3.29 µM | [18] 2.54 µM | [19] 10.5 µM | [20] 5.33 µM

Cc1nnc2n1N=C(c1cc(F)c(Cl)cc1Cl)/C(=C/c1ccc(Cl)cc1)S2
inactive: [1] 11.8 µM | [2] 12.8 µM | [3] 8.15 µM | [4] 14.4 µM | [5] 17.2 µM | [6] 15.7 µM | [7] 23.7 µM | [8] 9.42 µM | [9] 20.6 µM | [10] 19.1 µM | [11] 17.9 µM | [12] 37.7 µM | [13] 15.8 µM | [14] 43.1 µM | [15] 11.3 µM | [16] 14.9 µM | [17] 13.6 µM | [18] 6.46 µM | [19] 20.6 µM | [20] 16.1 µM

Cc1sc2c(c1C)C(=O)c1cccn1-2
inactive: [1] > 100 µM | [2] > 100 µM | [3] > 100 µM | [4] 68.5 µM | [5] 59 µM | [6] > 100 µM | [7] > 100 µM | [8] 56.4 µM | [9] 65.3 µM | [10] 60 µM | [11] > 100 µM | [12] 72.6 µM | [13] 96.4 µM | [14] 37.7 µM | [15] 54.7 µM | [16] 78.2 µM | [17] 56.6 µM | [18] > 100 µM | [19] > 100 µM | [20] > 100 µM

CC1(C)N=C(N)N=C(N)N1c1cccc(OCc2cccc([N+](=O)[O-])c2)c1
inactive: [1] > 100 µM | [2] 17.1 µM | [3] > 64.3 µM | [4] 34.1 µM | [5] > 100 µM | [6] > 76 µM | [7] 11.5 µM | [8] > 78.3 µM | [9] 14.4 µM | [10] 99.5 µM | [11] 51.8 µM | [12] > 85.9 µM | [13] > 53.8 µM | [14] > 100 µM | [15] > 100 µM | [16] 9.98 µM | [17] 17.7 µM | [18] > 30.6 µM | [19] > 53.1 µM | [20] 99.8 µM

CC(C)(C)c1ccc(S(=O)(=O)N2C(c3cccc(C4CC[C@@H](C(=O)O)N4S(=O)(=O)c4ccc(C(C)(C)C)cc4)c3)CC[C@H]2C(=O)O)cc1 (stereo not given in full)
inactive: [1] > 100 µM | [2] 53.8 µM | [3] 30.1 µM | [4] 44 µM | [5] 30.1 µM | [6] 98.4 µM | [7] 59.3 µM | [8] 30.1 µM | [9] 32.7 µM | [10] > 100 µM | [11] 54.1 µM | [12] 69.3 µM | [13] > 100 µM | [14] 47 µM | [15] 33.5 µM | [16] 47.3 µM | [17] 54.7 µM | [18] > 100 µM | [19] 87.1 µM | [20] 67.5 µM

O=C1CCc2cc3c(cc21)CC1(Cc2cc4c(cc2C1)CCCC4)C3
inactive: [1] > 100 µM | [2] 51.2 µM | [3] > 100 µM | [4] 44.5 µM | [5] 16 µM | [6] 83.2 µM | [7] 45.1 µM | [8] > 100 µM | [9] > 100 µM | [10] 61.5 µM | [11] 30.3 µM | [12] 29.1 µM | [13] 19.4 µM | [14] 30.5 µM | [15] > 100 µM | [16] > 100 µM | [17] 4.68 µM | [18] > 100 µM | [19] 90.6 µM | [20] > 100 µM

C(=C\c1nccs1)/c1cccc(/C=C/c2nccs2)n1
inactive: [1] > 50 µM | [2] > 50 µM | [3] > 50 µM | [4] 18.8 µM | [5] > 50 µM | [6] > 50 µM | [7] > 50 µM | [8] 49 µM | [9] > 50 µM | [10] > 50 µM | [11] > 50 µM | [12] > 50 µM | [13] > 50 µM | [14] > 50 µM | [15] > 50 µM | [16] > 50 µM | [17] > 50 µM | [18] > 50 µM | [19] > 50 µM | [20] 47.9 µM
